Results on 13 compounds are retold here after ChEMBL document CHEMBL1153336, “Cytotoxicity of cardenolides and cardenolide glycosides from Asclepias curassavica” (Bioorg Med Chem Lett, 2009).

One assay deals with HepG2. Briefly: Cytotoxicity against human HepG2 cells by MTT assay. Type of assay: functional, cell-based. (Tetrazolium assays rely on reduction of a dye to a coloured formazan, in cell work by metabolically active cells.)
The next assay relates to Raji. In words: Cytotoxicity against human Raji cells by MTT assay. It counts as functional, cell-based.

In the case of `C[C@@H]1C[C@H](O)[C@]2(O)O[C@@H]3C[C@@]4(C=O)[C@@H](CC[C@@H]5[C@@H]4C[C@@H](O)[C@]4(C)[C@@H](C6=CC(=O)OC6)CC[C@]54O)C[C@H]3O[C@@H]2O1`, the IC50 in the assay with HepG2 is 690 nM; in the assay on Raji, 1460 nM.
As for `CC(=O)O[C@@H]1C[C@]2(O)[C@@H]3CC[C@H]4C[C@H]5O[C@@H]6O[C@H](C)C[C@H](O)[C@]6(O)O[C@@H]5C[C@]4(C=O)[C@H]3CC[C@]2(C)[C@H]1C1=CC(=O)OC1`, the IC50 in the assay with HepG2 was 1340 nM; in the assay with Raji, 3540 nM.
Consider `CC(=O)O[C@H]1C[C@@H](C)O[C@H]2O[C@@H]3C[C@@H]4CC[C@@H]5[C@H](CC[C@]6(C)[C@@H](C7=CC(=O)OC7)[C@H](OC(C)=O)C[C@]56O)[C@@]4(C=O)C[C@H]3O[C@]21O`, for which the half-maximal inhibitory concentration (IC50) amounted to 760 nM with HepG2 and 3210 nM in the assay with Raji.
The like results for `CC(=O)O[C@H]1C[C@@H](C)O[C@H]2O[C@@H]3C[C@@H]4CC[C@@H]5[C@H](CC[C@]6(C)[C@@H](C7=CC(=O)OC7)[C@H](O)C[C@]56O)[C@@]4(C=O)C[C@H]3O[C@]21O` were, in that order, 3030 nM and 50 nM.
In the case of `CO[C@]12CC[C@@]3(CO1)[C@@H](CC[C@@H]1[C@@H]3C[C@@H](O)[C@]3(C)[C@@H](C4=CC(=O)OC4)CC[C@]13O)C2`, the 50% inhibitory concentration (IC50) in the assay with HepG2 was found to be 89900 nM; with Raji it was 64700 nM.
The like results for `COc1cc(/C=C/C(=O)OC[C@H]2O[C@@H](O[C@H]3CC[C@@]4(C)[C@@H](CC[C@@H]5[C@@H]4CC[C@]4(C)[C@@H](C6=CC(=O)OC6)CC[C@]54O)C3)[C@H](O)[C@@H](O)[C@@H]2O)ccc1O` were, in that order, above 100000 nM and 41100 nM.
In the case of `C[C@]12[C@H](O)C[C@H]3[C@@H](CC[C@H]4C[C@@H](O)CC[C@@]43CO)[C@@]1(O)CC[C@@H]2C1=CC(=O)OC1`, the values for the IC50 with HepG2 and with Raji were 5170 nM and 14600 nM, respectively.
As to `CC(=O)O[C@H]1C[C@@H](C)O[C@H]2O[C@@H]3C[C@@H]4CC[C@@H]5[C@H](CC[C@]6(C)[C@@H](C7=CC(=O)OC7)CC[C@]56O)[C@@]4(C=O)C[C@H]3O[C@]21O` [ASCLEPIN], the IC50 in the assay with HepG2 and in the assay on Raji was 20 nM throughout.
For `C[C@]12CC[C@H]3[C@@H](CC[C@H]4C[C@@H](O)[C@H](O)C[C@@]43C=O)[C@@]1(O)CC[C@@H]2C1=CC(=O)OC1` [CALOTROPAGENIN], the concentration for half-maximal inhibition (IC50) stood at 56600 nM in the assay on HepG2 and 24300 nM in the assay on Raji.
For `C[C@@H]1C[C@H](O)[C@]2(O)O[C@@H]3C[C@@]4(C=O)[C@@H](CC[C@@H]5[C@@H]4CC[C@]4(C)[C@@H](C6=CC(=O)OC6)CC[C@]54O)C[C@H]3O[C@@H]2O1` [CALOTROPIN], the IC50 came to 40 nM with HepG2 and 20 nM in the assay on Raji.
In the case of `C[C@]12CC[C@H]3[C@@H](CC[C@H]4C[C@@H](O)CC[C@@]43CO)[C@@]1(O)CC[C@@H]2C1=CC(=O)OC1` [COROGLAUCIGENIN], the figures for the IC50 with HepG2 and in the assay on Raji were 6700 nM and 140 nM, respectively.
The like results for `C[C@]12CC[C@H](O[C@@H]3O[C@H](CO)[C@@H](O)[C@H](O)[C@H]3O)C[C@@H]1CC[C@@H]1[C@@H]2CC[C@]2(C)[C@@H](C3=CC(=O)OC3)CC[C@]12O` [DESGLUCOUZARIN] were, in that order, 8530 nM and 750 nM.
Turning to `C[C@@H]1CC(=O)[C@]2(O)O[C@@H]3C[C@@]4(C=O)[C@@H](CC[C@@H]5[C@@H]4CC[C@]4(C)[C@@H](C6=CC(=O)OC6)CC[C@]54O)C[C@H]3O[C@@H]2O1` [USCHARIDIN], the IC50 in the assay with HepG2 is 380 nM; with Raji, 20 nM.

In general, IC50 refers to the midpoint of a concentration-inhibition curve. A lower IC50 goes with inhibition by little substance.
